Measurements from article PMC10584170, “Machine learning-based phenotypic imaging to characterise the targetable biology of Plasmodium falciparum male gametocytes for the development of transmission-blocking antimalarials” (PLOS Pathogens, 2023).
Read-outs that look alike come from different tables or passages of the source.

Legend:
[1] = tested on: P. falciparum female gametocytes; assay: P. falciparum Dual Gamete Formation Assay (PfDGFA), female readout (Pfs25-positive female gametes); assay type: cell-based, Plasmodium falciparum NF54; details: for Selectivity ratio F: HepG2 Tox50 versus female IC50; for Average inhibition female (%) / % inhibition female (individual replicates) R1 / % inhibition female (individual replicates) R3 / % inhibition female (individual replicates) R4 / inhibition at 2 µM: 24h preincubation with gametocytes; for IC50: PfDGFA, 24 h incubation with gametocytes before induction, female gamete readout, read-out: Female IC50; for HitlevelF: number of replicates with >50% inhibition in the female readout
Summary of the method: (§1)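 NF54 mature gametocytes (d14), cpd 24 h 37°C hypoxic gas; trigger: xanthurenic acid ookinete medium + Cy3 anti-Pfs25, 4°C 4 min → 28°C 4 min. Male: exflagellation centres, brightfield x6. Female: Pfs25+ gametes, fluorescence, +24 h 28°C dark.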

HepG2 cells = assay: HepG2 cytotoxicity counter-screen; details: cytotoxic activity against HepG2 cells
[2] = tested on: P. falciparum male gametocytes; assay: P. falciparum Dual Gamete Formation Assay (PfDGFA), male readout (exflagellation); assay type: cell-based, Plasmodium falciparum NF54; details: for Selectivity Ratio M: HepG2 Tox50 versus male IC50; for Average inhibition male (%) / % inhibition male (individual replicates) R1 / % inhibition male (individual replicates) R3 / % inhibition male (individual replicates) R4 / inhibition at 2 µM: 24h preincubation with gametocytes; for IC50: PfDGFA, 24 h incubation with gametocytes before induction, exflagellation readout, read-out: Male IC50; for HitlevelM: number of replicates with >50% inhibition in the male readout
Summary of the method: as §1

[3] = PfDGFA at 2µM, average of replicates
[4] = Plasmodium falciparum, PfDGFA at 2µM, average of replicates, read-out: Average inhibition female (%)
[5] = Plasmodium falciparum, PfDGFA at 2µM, replicate R1, read-out: % inhibition female (individual replicates) R1
[6] = Plasmodium falciparum, PfDGFA at 2µM, replicate R2, read-out: % inhibition female (individual replicates) R2
[7] = Plasmodium falciparum, PfDGFA at 2µM, replicate R3, read-out: % inhibition female (individual replicates) R3
[8] = Plasmodium falciparum, PfDGFA at 2µM, replicate R4, read-out: % inhibition female (individual replicates) R4
[9] = Plasmodium falciparum, PfDGFA at 2µM, average of replicates, read-out: Average inhibition male (%)
[10] = Plasmodium falciparum, PfDGFA at 2µM, replicate R1, read-out: % inhibition male (individual replicates) R1
[11] = Plasmodium falciparum, PfDGFA at 2µM, replicate R2, read-out: % inhibition male (individual replicates) R2
[12] = Plasmodium falciparum, PfDGFA at 2µM, replicate R3, read-out: % inhibition male (individual replicates) R3
[13] = Plasmodium falciparum, PfDGFA at 2µM, replicate R4, read-out: % inhibition male (individual replicates) R4
[14] = Plasmodium falciparum, 2µM, average of replicates, read-out: Average inhibition female (%)
[15] = Plasmodium falciparum, 2µM, replicate R1, read-out: % inhibition female (individual replicates) R1
[16] = Plasmodium falciparum, 2µM, replicate R2, read-out: % inhibition female (individual replicates) R2
[17] = Plasmodium falciparum, 2µM, replicate R3, read-out: % inhibition female (individual replicates) R3
[18] = Plasmodium falciparum, 2µM, replicate R4, read-out: % inhibition female (individual replicates) R4
[19] = Plasmodium falciparum, 2µM, average of replicates, read-out: Average inhibition male (%)
[20] = Plasmodium falciparum, 2µM, replicate R1, read-out: % inhibition male (individual replicates) R1
[21] = Plasmodium falciparum, 2µM, replicate R2, read-out: % inhibition male (individual replicates) R2
[22] = Plasmodium falciparum, 2µM, replicate R4, read-out: % inhibition male (individual replicates) R4

| Structure (SMILES) | Selectivity ratio F [1] | Average inhibition female (%) [1, 3] [%] | % inhibition female (individual replicates) R1 ([1]; PfDGFA at 2µM, replicate R1) [%] | % inhibition female (individual replicates) R3 ([1]; PfDGFA at 2µM, replicate R3) [%] | % inhibition female (individual replicates) R4 ([1]; PfDGFA at 2µM, replicate R4) [%] | IC50 [1] [µM] | HitlevelF ([1]; 2µM) | Tox50 (HepG2 cells) [µM] | Selectivity Ratio M [2] | Average inhibition male (%) [2, 3] [%] | % inhibition male (individual replicates) R1 ([2]; PfDGFA at 2µM, replicate R1) [%] | % inhibition male (individual replicates) R3 ([2]; PfDGFA at 2µM, replicate R3) [%] | % inhibition male (individual replicates) R4 ([2]; PfDGFA at 2µM, replicate R4) [%] | IC50 [2] [µM] | HitlevelM ([2]; 2µM) | IC50 ([1]; Plasmodium falciparum) [µM] | IC50 ([2]; Plasmodium falciparum) [µM] | further results |
| --- | --- | --- | --- | --- | --- | --- | --- | --- | --- | --- | --- | --- | --- | --- | --- | --- | --- | --- |
| CC(Cc1ccc(C(=O)Nc2ccc(CC(C)NCCc3cccc(Cl)c3)cc2)cc1)NCCc1ccc(C(F)(F)F)cc1 (stereo not drawn) [TCMDC-139790] | 3.01 | 37.4 | 27.8 | 24.4 | 27.0 | 1.25 | 1 | 3.76 | 2.39 | 83.5 | 92.2 | 51.0 | 92.9 | 1.58 | 4 |  |  |  |
| CC(Cc1ccc(NC(=O)c2ccc(CNCCCCc3ccccc3)cc2)cc1)NCCc1cccc(Cl)c1.Cl (stereo not drawn) [TCMDC-139866] | 1.02 | 35.2 | 34.1 | 6.7 | 45.1 | 3.73 | 1 | 3.81 | 2.02 | 80.8 | 85.9 | 43.9 | 97.6 | 1.88 | 3 |  |  |  |
| CC(Cc1ccc(OCCCCOc2ccccc2)cc1)NCCC1CCCN1C (stereo not drawn) [TCMDC-140017] | 1.19 |  |  |  |  | 1.37 |  | 1.62 | 2.45 |  |  |  |  | 0.66 |  |  |  | Average inhibition female (%) ([1]; 2µM, average of replicates): 62.2%; % inhibition female (individual replicates) R1 ([1]; 2µM, replicate R1): 37.3%; % inhibition female (individual replicates) R3 ([1]; 2µM, replicate R3): 46.8%; % inhibition female (individual replicates) R4 ([1]; 2µM, replicate R4): 81.6%; Average inhibition male (%) ([2]; 2µM, average of replicates): 99.4%; % inhibition male (individual replicates) R1 ([2]; 2µM, replicate R1): 96.0%; % inhibition male (individual replicates) R3 ([2]; 2µM, replicate R3): 99.2%; % inhibition male (individual replicates) R4 ([2]; 2µM, replicate R4): 102.2% |
| CN(CCCCN)Cc1ccc(-c2ccc(Cl)cc2)cc1 [TCMDC-140123] | 1.81 | 20.6 | 26.7 | 14.8 | 10.1 | 3.7 | 0 | 6.69 | 4.36 | 72.2 | 73.4 | 55.2 | 83.6 | 1.53 | 4 |  |  |  |
| COc1cc(-c2nc(C(C)(C)CN)[nH]c2-c2ccncc2)ccc1Br.Cl [TCMDC-140674] | 27.17 |  |  |  |  |  | 2 | 43.66 | 24.67 |  |  |  |  |  | 3 | 1.61 | 1.77 | inhibition at 2 µM [1, 4]: 51.9%; inhibition at 2 µM [1, 5]: 32.2%; inhibition at 2 µM [1, 6]: 85.8%; inhibition at 2 µM [1, 7]: 16.6%; inhibition at 2 µM [1, 8]: 72.9%; inhibition at 2 µM [2, 9]: 80.4%; inhibition at 2 µM [2, 10]: 38.8%; inhibition at 2 µM [2, 11]: 100%; inhibition at 2 µM [2, 12]: 83.7%; inhibition at 2 µM [2, 13]: 98.9% |
| N=C(N)Nc1nc(-c2ccc(NCc3ccc(CNc4cccc(-c5csc(NC(=N)N)n5)c4)cc3)cc2)cs1 [TCMDC-140699] | 2.7 |  |  |  |  | 2.17 |  | 5.85 | 7.68 |  |  |  |  | 0.76 |  |  |  | Average inhibition female (%) ([1]; 2µM, average of replicates): 56.1%; % inhibition female (individual replicates) R1 ([1]; 2µM, replicate R1): 34.4%; % inhibition female (individual replicates) R3 ([1]; 2µM, replicate R3): 32.5%; % inhibition female (individual replicates) R4 ([1]; 2µM, replicate R4): 82.5%; Average inhibition male (%) ([2]; 2µM, average of replicates): 99.5%; % inhibition male (individual replicates) R1 ([2]; 2µM, replicate R1): 99.4%; % inhibition male (individual replicates) R3 ([2]; 2µM, replicate R3): 98.0%; % inhibition male (individual replicates) R4 ([2]; 2µM, replicate R4): 98.9% |
| CN(C)CCCOc1ccc(CN2CCC(c3c[nH]c4ccc(NCC5CCCCC5)cc34)CC2)cc1.O=C(O)C(F)(F)F [TCMDC-140737] | 1.66 |  |  |  |  | 4.94 |  | 8.22 | 6.13 |  |  |  |  | 1.34 |  |  |  | Average inhibition female (%) ([1]; 2µM, average of replicates): 62.2%; % inhibition female (individual replicates) R1 ([1]; 2µM, replicate R1): 56.9%; % inhibition female (individual replicates) R3 ([1]; 2µM, replicate R3): 56.2%; % inhibition female (individual replicates) R4 ([1]; 2µM, replicate R4): 81.1%; Average inhibition male (%) ([2]; 2µM, average of replicates): 93.4%; % inhibition male (individual replicates) R1 ([2]; 2µM, replicate R1): 100.1%; % inhibition male (individual replicates) R3 ([2]; 2µM, replicate R3): 96.2%; % inhibition male (individual replicates) R4 ([2]; 2µM, replicate R4): 94.6% |
| CCN(CC)CCN(Cc1ccc(-c2ccc(C(F)(F)F)cc2)cc1)C(=O)Cn1cc(Cc2cnn(C)c2)c(=O)nc1/C=C/c1ccc(F)cc1.O=C(O)C(O)C(O)C(=O)O [TCMDC-140741] | 2.29 |  |  |  |  |  |  | 16.37 | 19.3 |  |  |  |  |  |  | 7.16 | 0.85 | inhibition at 2 µM [1, 14]: 44.8%; inhibition at 2 µM [1, 15]: 41.2%; inhibition at 2 µM [1, 16]: 41.2%; inhibition at 2 µM [1, 17]: 34.9%; inhibition at 2 µM [1, 18]: 61.9%; inhibition at 2 µM [2, 19]: 90.1%; inhibition at 2 µM [2, 20]: 92.2%; inhibition at 2 µM [2, 21]: 91.9%; inhibition at 2 µM ([2]; Plasmodium falciparum, 2µM, replicate R3, read-out: % inhibition male (individual replicates) R3): 76%; inhibition at 2 µM [2, 22]: 100% |
| CC(C)(C)c1ccc(CNC(=O)c2ccc(CNC3CCC(N)CC3)s2)cc1 (stereo not drawn) [TCMDC-140777] | 1.74 | 32.6 | 23.5 | 26.9 | 56.3 | 5.36 | 1 | 9.32 | 7.72 | 76.0 | 74.4 | 56.4 | 93.6 | 1.21 | 4 |  |  |  |
| CCN(CC)CCOc1ccc(Nc2ncc3cc(-c4c(Cl)cccc4Cl)c(=O)n(C)c3n2)cc1 [TCMDC-140940] | 0.27 |  |  |  |  |  | 0 | 2.66 | 1.38 |  |  |  |  |  | 4 | > 10 | 1.93 | inhibition at 2 µM [1, 4]: -0.6%; inhibition at 2 µM [1, 5]: -7.5%; inhibition at 2 µM [1, 6]: 1.2%; inhibition at 2 µM [1, 7]: -12%; inhibition at 2 µM [1, 8]: 15.8%; inhibition at 2 µM [2, 9]: 72.1%; inhibition at 2 µM [2, 10]: 72.9%; inhibition at 2 µM [2, 11]: 64.9%; inhibition at 2 µM [2, 12]: 74%; inhibition at 2 µM [2, 13]: 76.8% |
| CCN(CC)CCN(Cc1ccc(-c2ccc(C(F)(F)F)cc2)cc1)C(=O)Cn1cc(Cc2cnn(C)c2)c(=O)nc1/C=C/c1cccc(F)c1F.O=C(O)C(O)C(O)C(=O)O [TCMDC-140964] | 3.16 |  |  |  |  |  |  | 12.97 | 20.63 |  |  |  |  |  |  | 4.1 | 0.63 | inhibition at 2 µM [1, 14]: 36.2%; inhibition at 2 µM [1, 15]: 34%; inhibition at 2 µM [1, 16]: 38.6%; inhibition at 2 µM [1, 17]: 28.7%; inhibition at 2 µM [1, 18]: 43.5%; inhibition at 2 µM [2, 19]: 99.3%; inhibition at 2 µM [2, 20]: 98.8%; inhibition at 2 µM [2, 21]: 97.8%; inhibition at 2 µM [2, 22]: 101% |
